Measured values from ChEMBL document CHEMBL1129665, “2-Sulfonyl-4-chloroanilino moiety: a potent pharmacophore for the anti-human immunodeficiency virus type 1 activity of pyrrolyl aryl sulfones” (J Med Chem, 1996).

tested on: MT4; assay: Concentration required to reduce the viability of mock-infected MT-4 cells by 50%; type: functional; details: Homo sapiens

Structure (SMILES)	CC50 [µM]
COC(=O)c1cccn1S(=O)(=O)c1ccc(Cl)cc1N	248
CCOC(=O)c1cccn1S(=O)(=O)c1cc(Cl)c(Cl)cc1N	> 300
CCOC(=O)c1cccn1S(=O)(=O)c1cc(N)ccc1Cl	72
O=CNNC(=O)c1cccn1S(=O)(=O)c1ccccc1F	300
COC(=O)c1cccn1S(=O)(=O)c1cc([N+](=O)[O-])ccc1Cl	12
Nc1cc(Cl)ccc1S(=O)(=O)n1ccc2ccccc21	37
COC(=O)c1cccn1S(=O)(=O)c1cc(Cl)ccc1[N+](=O)[O-]	12
O=C(NC1CC1)c1cccn1S(=O)(=O)c1ccccc1F	300
CCOC(=O)c1cccn1S(=O)(=O)c1ccc(Cl)cc1N	238
CCOC(=O)c1cccn1S(=O)(=O)c1ccccc1Cl	141
CCOC(=O)c1cc2ccccc2n1S(=O)(=O)c1cc(Cl)ccc1[N+](=O)[O-]	> 100
O=[N+]([O-])c1ccc(Cl)cc1S(=O)(=O)n1cccc1	2
CCNc1ccc(Cl)cc1S(=O)(=O)n1cccc1C(=O)OCC	300
O=[N+]([O-])c1ccc(Cl)c(S(=O)(=O)n2ccc3ccccc32)c1	3
O=C(NC1CCCCC1)c1cccn1S(=O)(=O)c1ccccc1F	300
Nc1ccc(Cl)c(S(=O)(=O)n2ccc3ccccc32)c1	> 300
CCOC(=O)c1cccn1S(=O)(=O)c1cc(Cl)c(Cl)cc1[N+](=O)[O-]	5

Structure (SMILES)	CC50 [µM]
CCCOC(=O)c1cccn1S(=O)(=O)c1cc(Cl)ccc1[N+](=O)[O-]	10
CCOC(=O)c1cccn1S(=O)(=O)c1cc(Cl)ccc1[N+](=O)[O-]	12
CCCCNc1ccc(Cl)cc1S(=O)(=O)n1cccc1C(=O)OCC	> 300
Nc1ccccc1S(=O)(=O)n1cccc1	228
Nc1ccc(Cl)cc1S(=O)(=O)n1ccc2ccccc21	1
CCN(CC)CCOC(=O)c1cccn1S(=O)(=O)c1cc(Cl)ccc1[N+](=O)[O-]	30
Nc1ccc(Cl)cc1S(=O)(=O)n1cccc1	165
CC(C)OC(=O)c1cccn1S(=O)(=O)c1cc(Cl)ccc1[N+](=O)[O-]	> 300
CCOC(=O)c1cccn1S(=O)(=O)c1cc(Cl)ccc1NC	300
O=[N+]([O-])c1ccccc1S(=O)(=O)n1ccc2ccccc21	24
O=C(OCc1ccccc1)c1cccn1S(=O)(=O)c1cc(Cl)ccc1[N+](=O)[O-]	300
O=[N+]([O-])c1ccccc1S(=O)(=O)n1cccc1	36
O=C(O)c1cccn1S(=O)(=O)c1ccccc1F	> 300
O=C(NCc1ccccc1)c1cccn1S(=O)(=O)c1ccccc1F	> 300
COC(=O)c1cccn1S(=O)(=O)c1ccc(Cl)cc1[N+](=O)[O-]	> 300
CC(=O)c1cccn1S(=O)(=O)c1ccccc1[N+](=O)[O-]	100
O=[N+]([O-])c1cc(Cl)ccc1S(=O)(=O)n1cccc1	15

tested on: MT4; assay: Selectivity index expressed as the ratio of CC50/ EC50; type: functional, Homo sapiens; details: not given

Structure (SMILES)	Ratio
CCOC(=O)c1cccn1S(=O)(=O)c1cc(Cl)c(Cl)cc1N	>25
COC(=O)c1cccn1S(=O)(=O)c1cc(Cl)ccc1[N+](=O)[O-]	1.2
CCOC(=O)c1cccn1S(=O)(=O)c1ccccc1Cl	5
Nc1ccc(Cl)c(S(=O)(=O)n2ccc3ccccc32)c1	>2
Nc1ccc(Cl)cc1S(=O)(=O)n1cccc1	2
CC(C)OC(=O)c1cccn1S(=O)(=O)c1cc(Cl)ccc1[N+](=O)[O-]	>10
O=[N+]([O-])c1ccccc1S(=O)(=O)n1ccc2ccccc21	5
O=C(NCc1ccccc1)c1cccn1S(=O)(=O)c1ccccc1F	7
CC(=O)c1cccn1S(=O)(=O)c1ccccc1[N+](=O)[O-]	50

tested on: MT4; assay: Effective concentration against HIV-1 induced cytopathogenicity in MT-4 cells; type: functional, cell-based; details: Homo sapiens

Structure (SMILES)	EC50 [µM]
COC(=O)c1cccn1S(=O)(=O)c1ccc(Cl)cc1N	> 248
CCOC(=O)c1cccn1S(=O)(=O)c1cc(Cl)c(Cl)cc1N	12
CCOC(=O)c1cccn1S(=O)(=O)c1cc(N)ccc1Cl	> 72
O=CNNC(=O)c1cccn1S(=O)(=O)c1ccccc1F	> 300
COC(=O)c1cccn1S(=O)(=O)c1cc([N+](=O)[O-])ccc1Cl	> 12
Nc1cc(Cl)ccc1S(=O)(=O)n1ccc2ccccc21	> 37
COC(=O)c1cccn1S(=O)(=O)c1cc(Cl)ccc1[N+](=O)[O-]	10
O=C(NC1CC1)c1cccn1S(=O)(=O)c1ccccc1F	> 300
CCOC(=O)c1cccn1S(=O)(=O)c1ccc(Cl)cc1N	> 238
CCOC(=O)c1cccn1S(=O)(=O)c1ccccc1Cl	27
CCOC(=O)c1cc2ccccc2n1S(=O)(=O)c1cc(Cl)ccc1[N+](=O)[O-]	> 100
O=[N+]([O-])c1ccc(Cl)cc1S(=O)(=O)n1cccc1	> 2
CCNc1ccc(Cl)cc1S(=O)(=O)n1cccc1C(=O)OCC	> 300
O=[N+]([O-])c1ccc(Cl)c(S(=O)(=O)n2ccc3ccccc32)c1	> 3
O=C(NC1CCCCC1)c1cccn1S(=O)(=O)c1ccccc1F	> 300
Nc1ccc(Cl)c(S(=O)(=O)n2ccc3ccccc32)c1	150
CCOC(=O)c1cccn1S(=O)(=O)c1cc(Cl)c(Cl)cc1[N+](=O)[O-]	> 5

Structure (SMILES)	EC50 [µM]
CCCOC(=O)c1cccn1S(=O)(=O)c1cc(Cl)ccc1[N+](=O)[O-]	> 10
CCOC(=O)c1cccn1S(=O)(=O)c1cc(Cl)ccc1[N+](=O)[O-]	> 12
CCCCNc1ccc(Cl)cc1S(=O)(=O)n1cccc1C(=O)OCC	> 300
Nc1ccccc1S(=O)(=O)n1cccc1	> 228
Nc1ccc(Cl)cc1S(=O)(=O)n1ccc2ccccc21	1
CCN(CC)CCOC(=O)c1cccn1S(=O)(=O)c1cc(Cl)ccc1[N+](=O)[O-]	> 30
Nc1ccc(Cl)cc1S(=O)(=O)n1cccc1	95
CC(C)OC(=O)c1cccn1S(=O)(=O)c1cc(Cl)ccc1[N+](=O)[O-]	30
CCOC(=O)c1cccn1S(=O)(=O)c1cc(Cl)ccc1NC	> 300
O=[N+]([O-])c1ccccc1S(=O)(=O)n1ccc2ccccc21	5
O=C(OCc1ccccc1)c1cccn1S(=O)(=O)c1cc(Cl)ccc1[N+](=O)[O-]	> 300
O=[N+]([O-])c1ccccc1S(=O)(=O)n1cccc1	> 36
O=C(O)c1cccn1S(=O)(=O)c1ccccc1F	> 300
O=C(NCc1ccccc1)c1cccn1S(=O)(=O)c1ccccc1F	40
COC(=O)c1cccn1S(=O)(=O)c1ccc(Cl)cc1[N+](=O)[O-]	> 300
CC(=O)c1cccn1S(=O)(=O)c1ccccc1[N+](=O)[O-]	2
O=[N+]([O-])c1cc(Cl)ccc1S(=O)(=O)n1cccc1	> 15
